Columns and labels:
HMG-CoA reductase = target: T1, HMG-CoA reductase (Rattus norvegicus, UniProt P51639); test: Test A. In Vitro Microsomal Assay of HMG-CoA Reductase Inhibition; format: biochemical, rat (male Sprague-Dawley); conditions: rat liver microsomes; [14C]HMG-CoA substrate; test substance 0.0001-2,000 μmolar; read-out: IC50 (concentration producing a 50% inhibition of HMG-CoA reductase activity)
T1 sequence (P51639 1-887): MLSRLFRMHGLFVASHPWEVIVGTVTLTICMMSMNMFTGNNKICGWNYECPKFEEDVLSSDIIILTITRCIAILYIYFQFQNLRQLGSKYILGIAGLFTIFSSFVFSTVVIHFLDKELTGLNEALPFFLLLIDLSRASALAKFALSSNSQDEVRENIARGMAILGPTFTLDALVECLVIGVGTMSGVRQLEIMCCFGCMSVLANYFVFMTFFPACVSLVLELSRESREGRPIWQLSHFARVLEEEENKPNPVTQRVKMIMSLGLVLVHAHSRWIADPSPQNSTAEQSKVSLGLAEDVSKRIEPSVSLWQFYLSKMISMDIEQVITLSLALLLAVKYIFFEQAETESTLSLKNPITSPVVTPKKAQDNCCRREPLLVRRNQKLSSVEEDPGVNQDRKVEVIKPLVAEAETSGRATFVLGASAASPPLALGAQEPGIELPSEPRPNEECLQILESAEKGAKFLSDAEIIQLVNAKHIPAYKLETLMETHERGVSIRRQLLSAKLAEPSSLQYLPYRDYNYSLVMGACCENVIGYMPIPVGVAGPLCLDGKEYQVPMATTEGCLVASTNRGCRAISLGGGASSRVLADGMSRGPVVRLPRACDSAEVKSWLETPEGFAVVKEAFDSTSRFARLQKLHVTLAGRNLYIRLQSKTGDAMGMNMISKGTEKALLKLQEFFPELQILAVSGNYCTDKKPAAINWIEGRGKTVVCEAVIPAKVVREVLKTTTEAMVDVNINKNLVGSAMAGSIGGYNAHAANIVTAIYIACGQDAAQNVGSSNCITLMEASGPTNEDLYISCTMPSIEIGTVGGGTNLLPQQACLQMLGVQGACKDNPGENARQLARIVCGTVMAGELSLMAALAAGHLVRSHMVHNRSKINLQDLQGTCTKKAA
Procedure: Test A. In Vitro Microsomal Assay of HMG-CoA Reductase Inhibition:
200 μl. aliquots (1.08-1.50 mg./ml.) of rat liver microsomal suspensions, freshly prepared from male Sprague-Dawley rats (150-225 g. body weight), in Buffer A with 10 mmol. dithiothreitol are incubated with 10 μl. of a solution of the test substance in dimethylacetamide and assayed for HMG-CoA reductase activity as described in Ackerman et al., J. Lipid Res. 18, 408-413 (1977), the concentration of the test substance in the assay system being 0.0001-2,000 μmolar. In the assay the microsomes are the source of the HMG-CoA reductase enzyme which catalyzes the reduction of HMG-CoA to mevalonate. The assay employs a chloroform extraction to separate the product, [^14 C]mevalonolactone, formed by the HMG-CoA reductase reduction of the substrate, [^14 C]HMG-CoA. [^3 H]mevalonolactone is added as an internal reference. Inhibition of HMG-CoA reductase is calculated from the decrease in specific activity ([^14 C/^3 H]mevalonate) of test groups compared to controls.
IC50 is the concentration of the test substance in the assay system calculated or observed to produce a 50% inhibition of HMG-CoA reductase activity.

[1] = tested on: 3β-hydroxysterol synthesis; test: Test B. In Vivo Cholesterol Biosynthesis Inhibition Test; design: species or system rat (male Wistar Royal Hart); conditions: Rattus norvegicus; rats, oral, 0.5% carboxymethylcellulose; i.p. sodium [1-14C]acetate one hour later; serum two hours after mid-dark; read-out: ED50 (dose producing a 50% inhibition of 3β-hydroxysterol synthesis)
Procedure: Test B. In Vivo Cholesterol Biosynthesis Inhibition Test:
In vivo studies utilize male Wistar Royal Hart rats weighing 150±20 g. which have been kept for 7-10 days on an
altered light cycle (6:30 A.M.-6:30 P.M. dark) housed two per cage and fed powdered Purina Rat Chow and water ad libitum. Three hours before the diurnal maximum of cholesterol synthesis at mid-dark, the rats are orally administered the test substance (e.g., 0.01-200 mg./kg. body weight) dissolved or as a suspension in 0.5% carboxymethylcellulose in a volume of 1 ml./100 g. body weight. Controls receive vehicle alone. One hour after receiving the test substance (or the vehicle alone), the rats are injected intraperitoneally with about 25 μCi/100 g. body weight of sodium [1-^14 C]acetate 1-3 mCi/mmol. Two hours after mid-dark, blood samples are obtained under sodium hexobarbitol anesthesia, and the serum is separated by centrifugation.
The [^14 C]digitonides are then counted by liquid scintillation spectrometry. After correcting for efficiencies, the results are calculated in nCi (nanocuries) of 3β-hydroxysterol formed per 100 ml. of serum. Inhibition of 3β-hydroxysterol synthesis is calculated from the reduction in the nCi of 3β-hydroxysterols formed from test qroups compared to controls.
ED50 is the dose of the test substance calculated or observed to produce a 50% inhibition of 3β-hydroxysterol synthesis.

Compound | IC50 (HMG-CoA reductase) | ED50 [1]
CCC1(CC)C(/C=C/C(O)CC(O)CC(=O)O)=C(c2ccc(F)cc2)c2ccccc21 (centres unmarked) [Example 17] | 4700 nM | 
O=C(O)C[C@H](O)C[C@H](O)/C=C/C1=C(c2ccc(F)cc2)c2ccccc2C12CCCC2 | 3 nM | 
O=C(O)C[C@H](O)C[C@H](O)/C=C/C1=C(c2ccc(F)cc2)c2ccccc2C12CCCC2 (relative stereo) [Example 2, Sodium erythro-(E)-3,5-dihydroxy-7-[3'-(4"-fluorophenyl)spiro[cyclopentane-1,1'(1H)-inden]-2'-yl]hept-6-enoate] | 5 nM | 0.07 mg/kg
Cc1cc(C)cc(C2=C(/C=C/[C@H]3C[C@@H](O)CC(=O)O3)C3(CCCC3)c3ccccc32)c1 (relative stereo) [Example 7] | 150 nM | 
CCOC(=O)CC(O)CC(O)/C=C/C1=C(c2ccc(F)cc2)c2ccccc2C12CC2 (centres unmarked) [Example 24] | 19 nM | 0.71 mg/kg
CC(C)C1C(/C=C/[C@@H]2C[C@@H](O)CC(=O)O2)=C(c2ccc(F)cc2)c2ccccc21 (some centres unmarked) [Example 20] | 530 nM | 
Cc1cc(C)cc(C2=C(/C=C/[C@@H](O)C[C@@H](O)CC(=O)O)C3(CCCC3)c3ccccc32)c1 (relative stereo) [Example 8, Sodium erythro-(E)-3,5-dihydroxy-7-[3'-(3",5"-dimethylphenyl)spiro[cyclopentane-1,1'(1H)-inden]-2'-yl]hept-6-enoate] | 7 nM | 0.31 mg/kg
CC[C@H](C)C(=O)O[C@H]1CCC=C2C=C[C@H](C)[C@H](CC[C@@H]3C[C@@H](O)CC(=O)O3)[C@H]21 [Compactin, reference compound] |  | 3.5 mg/kg

— US5001255A, “Idene analogs of mevalonolactone and derivatives thereof” (Sandoz Pharm. Corp., priority 1988, dated 1991)
